The values that follow come from patent US9642821B2, “MiR-182 in the diagnosis and treatment of cancer” (Dana-Farber Cancer Institute, Inc., priority 2010, dated 2017).

The subject of series [1] is MDA-MB231 cells. The series can be described thus: Clonogenic cell survival assay with PARP inhibitors, MDA-MB231. It is filed as cell-based. As to conditions: MDA-MB231, 14 days, vs control mimic. Here is the method: Hela cells (0.35×10^6 cells/well), MDA-MB231 cells (0.4×10^6 cells/well), 21NT cells (0.5×10^6) were seeded overnight and transfected with 10 nM of miRNA mimics or antagomirs (Ambion, Austin, Tex.) using Lipofectamine 2000. In rescue experiments, miR-182 or control mimics were co-transfected with 1 μg/ml BRCA1 (pcDNA3.1 vector). After 2 days, 1000 cells in 4 ml DMEM media (10% FBS v/v) were seeded on 6 cm tissue culture dishes in four replicates and allowed to attach overnight before treatment. PARP inhibitors (4-amino-1,8-naphthalimide (Sigma, St. Louis, Mo.) or ABT-888 (ChemieTek, Indianapolis, Ind.) in DMSO) were added to the growth media at indicated concentrations. Irradiated cells as well as cells in the presence of PARP inhibitor were allowed to form colonies for 14 days. For evaluation, formed colonies were stained with crystal violet and surviving colonies containing >50 cells were counted. Plating efficiency was 30-50%.

Series [2] deals with BRCA1 transcript. The series can be described thus: Immunoprecipitation of HA-AGO1/miRNA complex, qRT-PCR of bound transcripts, MDA-MB231. It is filed as cell-based. As to conditions: MDA-MB231, HA-AGO1 IP, normalized to 5S rRNA. Here is the method: miR-182 cDNA and miR-17 cDNA was cloned from HL60 cDNA in pcDNA3.1-Puro expression vector (Invitrogen, Carlsbad, Calif.) using the following primers: […]
MDA-MB231 cells (0.5×10^6 cells) were co-transfected with 1 μg of HA-AGO1 (pIRES-FLAG/HA vector, Addgene) and 0.5 μg of expression vector for miR-182/miR-17 or miR-scr using Lipofectamine 2000. After 2 days cells were harvested using 400 μl lysis buffer (100 mM KCl, 5 mM MgCl2, 10 mM Hepes, pH 7.0, 0.5% Nonidet P-40) containing freshly added RNase inhibitor, RNaseOUT (Invitrogen, Carlsbad, Calif.) and Protease Inhibitor Cocktail (Roche, Basel, Switzerland). After centrifugation, a 50 μl aliquot of supernatant was taken as the input for subsequent RNA extraction. The remaining supernatant was gently shaken with HA-beads (HA-probe Santa Cruz sc-7392) for 4 h at 4° C. in spin columns (Pierce Spin Columns-Screw Cap). The columns were drained, washed and the retained beads were treated with 5 U DNaseI in NT2 buffer (50 mM Tris, pH7.4, 150 mM NaCl, 1 mM MgCl2, 0.05% Nonidet P-40) for 10 minutes at 37° C., washed with NT2 buffer and then treated with Proteinase K in NT2 buffer plus 1% SDS for 30 minutes at 55° C. […] RNA was reverse transcribed (see RNA isolation) and analyzed with qPCR for enrichment of mRNA of miR-182/miR-17 predicted targets.
On the technique in general: In qPCR the cycle at which signal appears reflects the starting amount.

Entries after “also recorded” stand apart in the source; their conditions may differ.

On to “miR-182: microRNA with sequence 5′ UUUGGCAAUGGUAGAACUCACACU 3′ (SEQ ID NO:1); given as mimic (Ambion) or expression vector (UUUGGCAAUGGUAGAACUCACACU; listed as RNA, chemistry not given here; listed as Homo sapiens)”, for which the “sensitivity to PARP1 inhibitor ABT-888 (clonogenic survival)” value in series [1] is on record as “sensitize MDA-MB231 cells to PARP1 inhibition”; in series [1] (listed as 182 mimic), “impacts sensitivity to PARP1 inhibitor ABT-888”. Further, the “sensitivity to PARP1 inhibitor ANI (clonogenic survival)” value was “sensitize MDA-MB231 cells to PARP1 inhibition” in series [1] and “significantly enhanced sensitivity to ANI” in series [1] (listed as miR-182 mimic). Moreover, the “association of miRNA/AGO1 complex with BRCA1 transcript” value in series [2] was “associates selectively; also recorded: significantly enriched”.
